{
  "source": "paper PMC4139342",
  "about": "“Pharmacokinetics-Pharmacodynamics Analysis of Bicyclic 4-Nitroimidazole Analogs in a Murine Model of Tuberculosis” (PLoS ONE, 2014)",
  "key": {"[1]": {"conditions": "cited from earlier work"}, "[2]": {"tested_on": "M. tuberculosis (Mtb) (H37Rv, ATCC 27294)", "experiment": "microbe, parasite or virus in culture", "assay_type": "cell-based", "conditions": "for MIC99: Mycobacterium tuberculosis"}, "[3]": {"experiment": "Cytotoxicity against THP1 macrophage cell lines", "assay_type": "cell-based", "conditions": "human"}, "Mtb H37Rv": {"tested_on": "Mtb H37Rv", "experiment": "In vivo mouse efficacy, established murine TB model", "design": "species or system Balb/c mice", "conditions": "for Mean log lung CFU reduction ± SEM compared to untreated controls / Mean log lung CFU ± SEM / log reduction at 25 mg/kg / log reduction at 100 mg/kg: 5 animals; for Efficacy compared with PA-824, in words: significance at P<0.05; for Dose dependence of efficacy, in words: 25 versus 100 mg/kg oral daily for 4 weeks; for log reduction at 25 mg/kg / log reduction at 100 mg/kg: Mycobacterium tuberculosis, H37RV, po, 672 h, read-out: Mean log lung CFU reduction ± SEM compared to untreated controls", "experimental": "In vivo mouse efficacy studies were determined after intranasal infection of Balb/c mice with 10^3 cfu Mtb H37Rv. Treatment was initiated 4 weeks after infection. Compounds were orally administered in CM-2 formulation for 4 weeks daily. Bacterial loads were determined at 2 and 4 weeks post treatment. Statistical analysis was done by a one-way analysis of variance, followed by a multiple comparison analysis of variance by a one-way Tukey test (GraphPad Prism, version 5.02, San Diago, California USA, www.graphpad.com). Differences were considered statistically significant at the 95% level of confidence."}, "[4]": {"experiment": "not given", "remark": "listed apart in the source"}, "[5]": {"conditions": "female, CD-1, mouse, in vivo, po, 25 mg/kg"}, "[6]": {"conditions": "female, CD-1, mouse, in vivo, po, 25 mg/kg", "remark": "listed apart in the source"}, "in vivo [7]": {"experiment": "in vivo", "conditions": "female, CD-1, mouse, po, 25 mg/kg"}, "in vivo [8]": {"experiment": "in vivo", "conditions": "female, CD-1, mouse, iv, 5 mg/kg; for clearance: i.v. CL"}, "in vivo [9]": {"experiment": "in vivo", "conditions": "female, CD-1, mouse, po, 25 mg/kg", "remark": "listed apart in the source"}, "in vitro [10]": {"experiment": "in vitro", "conditions": "human, Caco-2"}, "in vitro [11]": {"experiment": "in vitro", "conditions": "mouse, plasma"}, "[12]": {"experiment": "In vivo lung PK after oral dosing", "conditions": "female, CD-1, mouse, 25 mg/kg"}, "[13]": {"experiment": "In vivo plasma PK after intravenous dosing", "conditions": "mice, i.v. dosing at 5 mg/kg"}, "[14]": {"experiment": "In vivo plasma PK after oral dosing in CM-2 formulation", "conditions": "female, CD-1, mouse, plasma, po, 25 mg/kg"}, "[15]": {"conditions": "25 mg/kg oral daily for 4 weeks"}, "[16]": {"conditions": "100 mg/kg oral daily for 4 weeks"}},
  "data": [
    {"smiles": "CC[C@H]1OC(=O)[C@H](C)[C@@H](O[C@H]2C[C@@](C)(OC)[C@@H](O)[C@H](C)O2)[C@H](C)[C@@H](O[C@@H]2O[C@H](C)C[C@H](N(C)C)[C@H]2O)[C@](C)(O)C[C@@H](C)CN(C)[C@H](C)[C@@H](O)[C@]1(C)O", "note": "[Azithromycin]", "values": [
      {"measurement": "AUC lung/serum", "setting": "[1]", "value": 21},
      {"measurement": "Vss", "setting": "[1]", "value": 33, "unit": "L/kg"}
    ]},
    {"smiles": "O=[N+]([O-])c1cn2c(n1)OC[C@@H](NCc1ccc(OC(F)(F)F)c(Cl)c1)C2", "note": "[NI-135]", "values": [
      {"measurement": "In vitro potency relative to PA-824", "setting": "[2]", "value": 10, "unit": "times"},
      {"measurement": "MIC99", "setting": "[2]", "value": 0.03, "unit": "µg/mL"},
      {"measurement": "CC50", "setting": "[3]", "value": "> 10", "unit": "µg/mL"},
      {"measurement": "Mean log lung CFU reduction ± SEM compared to untreated controls", "setting": "Mtb H37Rv; [15]", "value": "1.48 ± 0.07", "unit": "log CFU"},
      {"measurement": "Mean log lung CFU ± SEM", "setting": "Mtb H37Rv; [15]", "value": "4.76±0.07", "unit": "log CFU"},
      {"measurement": "Efficacy compared with PA-824, in words", "setting": "Mtb H37Rv; [15]", "value": "comparable efficacy to PA-824"},
      {"measurement": "Mean log lung CFU ± SEM", "setting": "Mtb H37Rv; [16]", "value": "4.36±0.07", "unit": "log CFU"},
      {"measurement": "Efficacy compared with PA-824, in words", "setting": "Mtb H37Rv; [16]", "value": "comparable efficacy to PA-824"},
      {"measurement": "Dose dependence of efficacy, in words", "setting": "Mtb H37Rv", "value": "dose dependent increase in efficacy"},
      {"measurement": "log reduction at 25 mg/kg", "setting": "Mtb H37Rv; [15]", "value": "1.48 ± 0.07"},
      {"measurement": "log reduction at 100 mg/kg", "setting": "Mtb H37Rv; [16]", "value": "1.88 ± 0.07"},
      {"measurement": "Solubility pH 6.8", "value": 77.0, "unit": "µg/mL"},
      {"measurement": "PAMPA %FA", "setting": "[4]", "value": 90, "unit": "%"},
      {"measurement": "PAMPA Log Pe", "setting": "[4]", "value": "–4.5 cm/sec"},
      {"measurement": "Plasma free fCmax", "setting": "[5]", "value": 0.1, "unit": "µg/mL"},
      {"measurement": "Absolute lung concentrations, fold lower than PA-824", "setting": "[6]", "value": "2.5-7.5 fold"},
      {"measurement": "Lung AUC24", "setting": "[6]", "value": 18.6, "unit": "µg·h/g"},
      {"measurement": "Lung Cmax", "setting": "[6]", "value": 5.5, "unit": "µg/g"},
      {"measurement": "AUC", "setting": "in vivo [7]", "value": 4800, "unit": "ng·h/mL"},
      {"measurement": "Cmax", "setting": "in vivo [7]", "value": 1200, "unit": "ng/mL"},
      {"measurement": "Tmax", "setting": "in vivo [7]", "value": 0.5, "unit": "h"},
      {"measurement": "bioavailability", "setting": "in vivo [7]", "value": 51, "unit": "%"},
      {"measurement": "Vd", "setting": "in vivo [8]", "value": 4.2, "unit": "L/kg"},
      {"measurement": "clearance", "setting": "in vivo [8]", "value": 41, "unit": "mL/min/kg"},
      {"measurement": "Tmax", "setting": "in vivo [9]", "value": 0.5, "unit": "h"},
      {"measurement": "Kp", "setting": "in vivo [9]; Lung to Plasma ratio AUC24", "value": 3.9},
      {"measurement": "Kp", "setting": "in vivo [9]; Lung to Plasma ratio Cmax", "value": 4.6},
      {"measurement": "logP", "setting": "physchem", "value": 3},
      {"measurement": "Papp A→B", "setting": "in vitro [10]", "value": 23.4, "unit": "×10⁻⁶ cm/s"},
      {"measurement": "Papp B→A", "setting": "in vitro [10]", "value": 15.3, "unit": "×10⁻⁶ cm/s"},
      {"measurement": "efflux ratio", "setting": "in vitro [10]", "value": 0.6},
      {"measurement": "fraction unbound", "setting": "in vitro [11]", "value": 0.085},
      {"measurement": "half-life", "setting": "[12]", "value": 3.3, "unit": "h"},
      {"measurement": "half-life", "setting": "[13]; female, CD-1, mouse, plasma, iv, 5 mg/kg, T1/2 (i.v)", "value": 4, "unit": "h"},
      {"measurement": "half-life", "setting": "[14]", "value": 2.9, "unit": "h"}
    ]},
    {"smiles": "O=[N+]([O-])c1cn2c(n1)OC[C@@H](NCc1ccc(OC(F)(F)F)c(F)c1)C2", "note": "[NI-136]", "values": [
      {"measurement": "In vitro potency relative to PA-824", "setting": "[2]", "value": 10, "unit": "times"},
      {"measurement": "MIC99", "setting": "[2]", "value": 0.03, "unit": "µg/mL"},
      {"measurement": "CC50", "setting": "[3]", "value": "> 10", "unit": "µg/mL"},
      {"measurement": "Mean log lung CFU reduction ± SEM compared to untreated controls", "setting": "Mtb H37Rv; [15]", "value": "1.31 ± 0.06", "unit": "log CFU"},
      {"measurement": "Mean log lung CFU ± SEM", "setting": "Mtb H37Rv; [15]", "value": "4.93±0.06", "unit": "log CFU"},
      {"measurement": "Efficacy compared with PA-824, in words", "setting": "Mtb H37Rv; [15]", "value": "comparable efficacy to PA-824"},
      {"measurement": "Mean log lung CFU ± SEM", "setting": "Mtb H37Rv; [16]", "value": "4.18±0.17", "unit": "log CFU"},
      {"measurement": "Efficacy compared with PA-824, in words", "setting": "Mtb H37Rv; [16]", "value": "comparable efficacy to PA-824"},
      {"measurement": "Dose dependence of efficacy, in words", "setting": "Mtb H37Rv", "value": "dose dependent increase in efficacy"},
      {"measurement": "log reduction at 25 mg/kg", "setting": "Mtb H37Rv; [15]", "value": "1.31 ± 0.06"},
      {"measurement": "log reduction at 100 mg/kg", "setting": "Mtb H37Rv; [16]", "value": "2.06 ± 0.17"},
      {"measurement": "Solubility pH 6.8", "value": 43.0, "unit": "µg/mL"},
      {"measurement": "PAMPA %FA", "setting": "[4]", "value": 83, "unit": "%"},
      {"measurement": "PAMPA Log Pe", "setting": "[4]", "value": "–4.7 cm/sec"},
      {"measurement": "Plasma free fCmax", "setting": "[5]", "value": 0.3, "unit": "µg/mL"},
      {"measurement": "Absolute lung concentrations, fold lower than PA-824", "setting": "[6]", "value": "2.5-7.5 fold"},
      {"measurement": "Lung AUC24", "setting": "[6]", "value": 39.8, "unit": "µg·h/g"},
      {"measurement": "Lung Cmax", "setting": "[6]", "value": 7.2, "unit": "µg/g"},
      {"measurement": "AUC", "setting": "in vivo [7]", "value": 10700, "unit": "ng·h/mL"},
      {"measurement": "Cmax", "setting": "in vivo [7]", "value": 2000, "unit": "ng/mL"},
      {"measurement": "Tmax", "setting": "in vivo [7]", "value": 0.5, "unit": "h"},
      {"measurement": "bioavailability", "setting": "in vivo [7]", "value": 64, "unit": "%"},
      {"measurement": "Vd", "setting": "in vivo [8]", "value": 1.8, "unit": "L/kg"},
      {"measurement": "clearance", "setting": "in vivo [8]", "value": 25.1, "unit": "mL/min/kg"},
      {"measurement": "Tmax", "setting": "in vivo [9]", "value": 0.5, "unit": "h"},
      {"measurement": "Kp", "setting": "in vivo [9]; Lung to Plasma ratio AUC24", "value": 3.7},
      {"measurement": "Kp", "setting": "in vivo [9]; Lung to Plasma ratio Cmax", "value": 3.6},
      {"measurement": "logP", "setting": "physchem", "value": 2.6},
      {"measurement": "Papp A→B", "setting": "in vitro [10]", "value": 15.4, "unit": "×10⁻⁶ cm/s"},
      {"measurement": "Papp B→A", "setting": "in vitro [10]", "value": 12.6, "unit": "×10⁻⁶ cm/s"},
      {"measurement": "efflux ratio", "setting": "in vitro [10]", "value": 0.8},
      {"measurement": "fraction unbound", "setting": "in vitro [11]", "value": 0.173},
      {"measurement": "half-life", "setting": "[12]", "value": 2.5, "unit": "h"},
      {"measurement": "T1/2 (i.v)", "setting": "[13]", "value": 1.3, "unit": "h"},
      {"measurement": "half-life", "setting": "[14]", "value": 2, "unit": "h"}
    ]}
  ]
}
